How the values were obtained:
[1] = tested on: influenza A virus (A/PR/8/34); assay: microbe, parasite or virus in culture; format: cell-based; conditions: Influenza A virus, PR/8, MDCK, MDCK cells infected with A/PR/8/34; survival of infected cells; class symbols; read-out: IC50 (mean all)
[2] = tested on: A/PR/8/34 influenza virus; assay: microbe, parasite or virus in culture; format: cell-based; conditions: Influenza A virus, PR/8, MDCK, MDCK cells infected with A/PR/8/34; replication of influenza virus (viral RNA, bDNA); class symbols; read-out: EC50 (mean all)

Compound | IC50 [1] | EC50 [2]
CC(C)(C)C(=O)N1CCOCC1CNc1nc(-c2c[nH]c3ncc(Cl)cc23)ncc1F (centres unmarked) [Compound 530, 1-(3-((2-(5-chloro-1H-pyrrolo[2,3-b]pyridin-3-yl)-5-fluoropyrimidin-4-ylamino)methyl)morpholino)-2,2-dimethylpropan-1-one] | > 20 µM | 5 to 10 µM
O=C(C1CCC1)N1CCOCC1CNc1nc(-c2c[nH]c3ncc(Cl)cc23)ncc1F (centres unmarked) [Compound 531, (3-((2-(5-chloro-1H-pyrrolo[2,3-b]pyridin-3-yl)-5-fluoropyrimidin-4-ylamino)methyl)morpholino)(cyclobutyl)methanone] | 5 to 20 µM | < 5 µM
CS(=O)(=O)N1CCOCC1CNc1nc(-c2c[nH]c3ncc(Cl)cc23)ncc1F (centres unmarked) [Compound 532, 2-(5-chloro-1H-pyrrolo[2,3-b]pyridin-3-yl)-5-fluoro-N-((4-(methylsulfonyl)morpholin-3-yl)methyl)pyrimidin-4-amine] | 5 to 20 µM | < 5 µM
O=S(=O)(C1CC1)N1CCOCC1CNc1nc(-c2c[nH]c3ncc(Cl)cc23)ncc1F (centres unmarked) [Compound 533, 2-(5-chloro-1H-pyrrolo[2,3-b]pyridin-3-yl)-N-((4-(cyclopropylsulfonyl)morpholin-3-yl)methyl)-5-fluoropyrimidin-4-amine] | 5 to 20 µM | < 5 µM
NC(=O)N1CCOCC1CNc1nc(-c2c[nH]c3ncc(Cl)cc23)ncc1F (centres unmarked) [Compound 534, 3-((2-(5-chloro-1H-pyrrolo[2,3-b]pyridin-3-yl)-5-fluoropyrimidin-4-ylamino)methyl)morpholine-4-carboxamide] | 5 to 20 µM | < 5 µM
CCNC(=O)N1CCOCC1CNc1nc(-c2c[nH]c3ncc(Cl)cc23)ncc1F (centres unmarked) [Compound 535, 3-((2-(5-chloro-1H-pyrrolo[2,3-b]pyridin-3-yl)-5-fluoropyrimidin-4-ylamino)methyl)-N-ethylmorpholine-4-carboxamide] | 5 to 20 µM | > 10 µM
CC(C)NC(=O)N1CCOCC1CNc1nc(-c2c[nH]c3ncc(Cl)cc23)ncc1F (centres unmarked) [Compound 536, 3-((2-(5-chloro-1H-pyrrolo[2,3-b]pyridin-3-yl)-5-fluoropyrimidin-4-ylamino)methyl)-N-isopropylmorpholine-4-carboxamide] | 5 to 20 µM | > 10 µM
COCC(O)CN1CCCC(Nc2nc(-c3c[nH]c4ncc(Cl)cc34)ncc2F)C1 [Compound 537, 1-((S)-3-((2-(5-chloro-1H-pyrrolo[2,3-b]pyridin-3-yl)-5-fluoropyrimidin-4-ylamino)piperidin-1-yl)-3-methoxypropan-2-ol] | < 5 µM | < 5 µM
CC[C@H](O)CN1CCCC(Nc2nc(-c3c[nH]c4ncc(Cl)cc34)ncc2F)C1 (some centres unmarked) [Compound 538] | < 5 µM | < 5 µM
NC1CCCC(Nc2nc(-c3c[nH]c4ncc(Cl)cc34)ncc2F)C1 (stereo not drawn) [Compound 540, N-[2-(5-chloro-1H-pyrrolo[5,4-b]pyridin-3-yl)-5-fluoro-pyrimidin-4-yl]cyclohexane-cis-1,3-diamine] | < 5 µM | < 5 µM
N[C@H]1CCC[C@@H](Nc2nc(-c3c[nH]c4ncc(Cl)cc34)ncc2F)C1 [Compound 542, (1R,3S)—N1-[2-(5-chloro-1H-pyrrolo[2,3-b]pyridin-3-yl)-5-fluoro-pyrimidin-4-yl]cyclohexane-1,3-diamine] | 5 to 20 µM | 5 to 10 µM
O=C(O)[C@H]1CCCC[C@@H]1Nc1nc(-c2c[nH]c3ncc(Cl)cc23)ncc1F [Compound 553, (1S,2S)-2-[[2-(5-chloro-1H-pyrrolo[5,4-b]pyridin-3-yl)-5-fluoro-pyrimidin-4-yl]amino]cyclohexane-1-carboxylic acid] | < 5 µM | < 5 µM
CCOC(=O)[C@@H]1CCCC[C@H]1Nc1nc(-c2c[nH]c3ncc(Cl)cc23)ncc1F [Compound 560, (1R,2R)-ethyl 2-(2-(5-chloro-1H-pyrrolo[2,3-b]pyridin-3-yl)-5-fluoropyrimidin-4-ylamino)cyclohexanecarboxylate] | > 10 µM | > 10 µM
